In US9873709B2 (priority 2013, dated 2018):
Where a name gives a salt, the structure may show the parent alone.

What follows are compounds tested on JAK1-dependent STAT6 phosphorylation downstream of IL-13 stimulation in TF-1 human erythroleukemia cells (assay: cells). Conditions: TF-1, read-out: IL-13-pSTAT6 IC50.

| Structure (SMILES) | IC50 |
| --- | --- |
| CN1CCN(C(=O)c2ccc(Nc3nc4c(C5=CCN(C(=O)CCC(F)(F)F)CC5)cccn4n3)cc2)CC1 [Example 2-98, 4,4,4-trifluoro-1-[4-[2-[4-(4-methylpiperazine-1-carbonyl)anilino]-[1,2,4]triazolo[1,5-a]pyridin-8-yl]-3,6-dihydro-2H-pyridin-1-yl]butan-1-one] | 11.5 nM |
| CN1CCN(CCCNC(=O)c2ccc(Nc3nc4c(C5=CCN(C(=O)CCC(F)(F)F)CC5)cccn4n3)cc2)CC1 [Example 2-99, N-[3-(4-methylpiperazin-1-yl)propyl]-4-[[8-[1-(4,4,4-trifluorobutanoyl)-3,6-dihydro-2H-pyridin-4-yl]-[1,2,4]triazolo[1,5-a]pyridin-2-yl]amino]benzamide] | 29.4 nM |
| O=C(NCCN1CCC(O)CC1)c1ccc(Nc2nc3c(C4=CCN(C(=O)CCC(F)(F)F)CC4)cccn3n2)cc1 [Example 2-100, N-[2-(4-hydroxy-1-piperidyl)ethyl]-4-[[8-[1-(4,4,4-trifluorobutanoyl)-3,6-dihydro-2H-pyridin-4-yl]-[1,2,4]triazolo[1,5-a]pyridin-2-yl]amino]benzamide] | 84.7 nM |
| CN(C)CCN1CCN(C(=O)c2ccc(Nc3nc4c(C5=CCN(C(=O)CCC(F)(F)F)CC5)cccn4n3)cc2)CC1 [Example 2-102, 1-[4-[2-[4-[4-[2-(dimethylamino)ethyl]piperazine-1-carbonyl]anilino]-[1,2,4]triazolo[1,5-a]pyridin-8-yl]-3,6-dihydro-2H-pyridin-1-yl]-4,4,4-trifluoro-butan-1-one] | 33.7 nM |
| O=C(CCC(F)(F)F)N1CC=C(c2cccn3nc(Nc4ccc(C(=O)N5CCCC(c6cc7cccnc7[nH]6)C5)cc4)nc23)CC1 (stereo not drawn) [Example 2-103, 4,4,4-trifluoro-1-[4-[2-[4-[3-(1H-pyrrolo[2,3-b]pyridin-2-yl)piperidine-1-carbonyl]anilino]-[1,2,4]triazolo[1,5-a]pyridin-8-yl]-3,6-dihydro-2H-pyridin-1-yl]butan-1-one] | 145 nM |
| CN(Cc1ccccc1-c1cccnc1)C(=O)c1ccc(Nc2nc3c(C4=CCN(C(=O)CCC(F)(F)F)CC4)cccn3n2)cc1 [Example 2-104, N-methyl-N-[[2-(3-pyridyl)phenyl]methyl]-4-[[8-[1-(4,4,4-trifluorobutanoyl)-3,6-dihydro-2H-pyridin-4-yl]-[1,2,4]triazolo[1,5-a]pyridin-2-yl]amino]benzamide] | 59.7 nM |
| CN1CCC(N(C)C(=O)c2ccc(Nc3nc4c(C5=CCN(C(=O)C6CCOCC6)CC5)cccn4n3)cc2)CC1 [Example 2-105, N-methyl-N-(1-methyl-4-piperidyl)-4-[[8-[1-(tetrahydropyran-4-carbonyl)-3,6-dihydro-2H-pyridin-4-yl]-[1,2,4]triazolo[1,5-a]pyridin-2-yl]amino]benzamide] | 373 nM |
| CNC(=O)N1CC=C(c2cccn3nc(Nc4ccc(C(=O)N(C)C5CCN(C)CC5)cc4)nc23)CC1 [Example 2-106, N-methyl-4-[2-[4-[methyl-(1-methyl-4-piperidyl)carbamoyl]anilino]-[1,2,4]triazolo[1,5-a]pyridin-8-yl]-3,6-dihydro-2H-pyridine-1-carboxamide; hydrochloride] | 8570 nM |
| CN1CCC(N(C)C(=O)c2ccc(Nc3nc4c(C5=CCN(C(=O)C6CCOC6)CC5)cccn4n3)cc2)CC1 (stereo not drawn) [Example 2-107, N-methyl-N-(1-methyl-4-piperidyl)-4-[[8-[1-(tetrahydrofuran-3-carbonyl)-3,6-dihydro-2H-pyridin-4-yl]-[1,2,4]triazolo[1,5-a]pyridin-2-yl]amino]benzamide; hydrochloride] | 422 nM |
| CN1CCC(N(C)C(=O)c2ccc(Nc3nc4c(C5=CCN(C(=O)OCC(F)(F)F)CC5)cccn4n3)cc2)CC1 [Example 2-108, 2,2,2-trifluoroethyl 4-[2-[4-[methyl-(1-methyl-4-piperidyl)carbamoyl]anilino]-[1,2,4]triazolo[1,5-a]pyridin-8-yl]-3,6-dihydro-2H-pyridine-1-carboxylate] | 9.8 nM |
| CCOC(=O)N1CC=C(c2cccn3nc(Nc4ccc(C(=O)NCCC5CCCN5C)cc4)nc23)CC1 (stereo not drawn) [Example 2-111, ethyl 4-[2-[4-[2-(1-methylpyrrolidin-2-yl)ethylcarbamoyl]anilino]-[1,2,4]triazolo[1,5-a]pyridin-8-yl]-3,6-dihydro-2H-pyridine-1-carboxylate] | 22.6 nM |
| CCOC(=O)N1CC=C(c2cccn3nc(Nc4ccc(C(=O)NCCN5CCNCC5)cc4)nc23)CC1 [Example 2-112, ethyl 4-[2-[4-(2-piperazin-1-ylethylcarbamoyl)anilino]-[1,2,4]triazolo[1,5-a]pyridin-8-yl]-3,6-dihydro-2H-pyridine-1-carboxylate] | 233 nM |
| CCOC(=O)N1CC=C(c2cccn3nc(Nc4ccc(C(=O)NC5CCCNC5)cc4)nc23)CC1 (stereo not drawn) [Example 2-113, ethyl 4-[2-[4-(3-piperidylcarbamoyl)anilino]-[1,2,4]triazolo[1,5-a]pyridin-8-yl]-3,6-dihydro-2H-pyridine-1-carboxylate] | 96.8 nM |
| CCOC(=O)N1CC=C(c2cccn3nc(Nc4ccc(C(=O)NCC5CCCCN5)cc4)nc23)CC1 (stereo not drawn) [Example 2-114, ethyl 4-[2-[4-(2-piperidylmethylcarbamoyl)anilino]-[1,2,4]triazolo[1,5-a]pyridin-8-yl]-3,6-dihydro-2H-pyridine-1-carboxylate] | 69.2 nM |
| CCOC(=O)N1CC=C(c2cccn3nc(Nc4ccc(C(=O)N5CC(C(=O)N(C)C)C5)cc4)nc23)CC1 [Example 2-115, ethyl 4-[2-[4-[3-(dimethylcarbamoyl)azetidine-1-carbonyl]anilino]-[1,2,4]triazolo[1,5-a]pyridin-8-yl]-3,6-dihydro-2H-pyridine-1-carboxylate] | 19 nM |
| CCOC(=O)N1CC=C(c2cccn3nc(Nc4ccc(C(=O)N(C)CCc5ccncc5)cc4)nc23)CC1 [Example 2-119, ethyl 4-[2-[4-[methyl-[2-(4-pyridyl)ethyl]carbamoyl]anilino]-[1,2,4]triazolo[1,5-a]pyridin-8-yl]-3,6-dihydro-2H-pyridine-1-carboxylate] | 23.9 nM |
| CCOC(=O)N1CC=C(c2cccn3nc(Nc4ccc(C(=O)N5CC6CN(C)CC(C5)O6)cc4)nc23)CC1 [Example 2-123, ethyl 4-[2-[4-(7-methyl-9-oxa-3,7-diazabicyclo[3.3.1]nonane-3-carbonyl)anilino]-[1,2,4]triazolo[1,5-a]pyridin-8-yl]-3,6-dihydro-2H-pyridine-1-carboxylate] | 48.8 nM |
| CCOC(=O)N1CC=C(c2cccn3nc(Nc4ccc(C(=O)NCc5cc(C)ccn5)cc4)nc23)CC1 [Example 2-124, ethyl 4-[2-[4-[(4-methyl-2-pyridyl)methylcarbamoyl]anilino]-[1,2,4]triazolo[1,5-a]pyridin-8-yl]-3,6-dihydro-2H-pyridine-1-carboxylate] | 38.5 nM |
| CCOC(=O)N1CC=C(c2cccn3nc(Nc4ccc(C(=O)N5CCC(CN)C5)cc4)nc23)CC1 (stereo not drawn) [Example 2-130, ethyl 4-[2-[4-[3-(aminomethyl)pyrrolidine-1-carbonyl]anilino]-[1,2,4]triazolo[1,5-a]pyridin-8-yl]-3,6-dihydro-2H-pyridine-1-carboxylate] | 226 nM |
| O=C(CCC(F)(F)F)N1CC=C(c2cccn3nc(Nc4ccc(C(=O)N5CCC6(CCNC6)CC5)cc4)nc23)CC1 [Example 2-136, 1-[4-[2-[4-(2,8-diazaspiro[4.5]decane-8-carbonyl)anilino]-[1,2,4]triazolo[1,5-a]pyridin-8-yl]-3,6-dihydro-2H-pyridin-1-yl]-4,4,4-trifluoro-butan-1-one] | 163 nM |
| O=C(NC1CCCNC1)c1ccc(Nc2nc3c(C4=CCN(C(=O)CCC(F)(F)F)CC4)cccn3n2)cc1 (stereo not drawn) [Example 2-137, N-(3-piperidyl)-4-[[8-[1-(4,4,4-trifluorobutanoyl)-3,6-dihydro-2H-pyridin-4-yl]-[1,2,4]triazolo[1,5-a]pyridin-2-yl]amino]benzamide] | 78.8 nM |
| O=C(N[C@H]1CCCNC1)c1ccc(Nc2nc3c(C4=CCN(C(=O)CCC(F)(F)F)CC4)cccn3n2)cc1 [Example 2-138, N-[(3S)-3-piperidyl]-4-[[8-[1-(4,4,4-trifluorobutanoyl)-3,6-dihydro-2H-pyridin-4-yl]-[1,2,4]triazolo[1,5-a]pyridin-2-yl]amino]benzamide] | 61.9 nM |
| O=C(CCC(F)(F)F)N1CC=C(c2cccn3nc(Nc4ccc(C(=O)N5CCO[C@@H]6CNC[C@@H]65)cc4)nc23)CC1 [Example 2-139, 1-[4-[2-[4-[(4aS,7aR)-3,4a,5,6,7,7a-hexahydro-2H-pyrrolo[3,4-b][1,4]oxazine-4-carbonyl]anilino]-[1,2,4]triazolo[1,5-a]pyridin-8-yl]-3,6-dihydro-2H-pyridin-1-yl]-4,4,4-trifluoro-butane-1-one] | 358 nM |
| N#CCCN1CCN(C(=O)c2ccc(Nc3nc4c(C5=CCN(C(=O)CCC(F)(F)F)CC5)cccn4n3)cc2)CC1 [Example 2-142, 3-[4-[4-[[8-[1-(4,4,4-trifluorobutanoyl)-3,6-dihydro-2H-pyridin-4-yl]-[1,2,4]triazolo[1,5-a]pyridin-2-yl]amino]benzoyl]piperazin-1-yl]propanenitrile] | 6.6 nM |
| Cc1ccc(C2CCCN2C(=O)c2ccc(Nc3nc4c(C5=CCN(C(=O)CCC(F)(F)F)CC5)cccn4n3)cc2)nc1 (stereo not drawn) [Example 2-143, 4,4,4-trifluoro-1-[4-[2-[4-[2-(5-methyl-2-pyridyl)pyrrolidine-1-carbonyl]anilino]-[1,2,4]triazolo[1,5-a]pyridin-8-yl]-3,6-dihydro-2H-pyridin-1-yl]butan-1-one] | 7.9 nM |
| CN1CCN(C(=O)c2ccc(Nc3nc4c(C5=CCN(C(=O)CCC(F)(F)F)CC5)cccn4n3)cc2)CC(CO)C1 (stereo not drawn) [Example 2-144, 4,4,4-trifIuoro-1-[4-[2-[4-[6-(hydroxymethyl)-4-methyl-1,4-diazepane-1-carbonyl]anilino]-[1,2,4]triazolo[1,5-a]pyridin-8-yl]-3,6-dihydro-2H-pyridin-1-yl]butan-1-one] | 187 nM |
| O=C(CCC(F)(F)F)N1CC=C(c2cccn3nc(Nc4ccc(C(=O)N5CCCC5c5cccnc5)cc4)nc23)CC1 (stereo not drawn) [Example 2-145, 4,4,4-trifluoro-1-[4-[2-[4-[2-(3-pyridyl)pyrrolidine-1-carbonyl]anilino]-[1,2,4]triazolo[1,5-a]pyridin-8-yl]-3,6-dihydro-2H-pyridin-1-yl]butan-1-one] | 6.4 nM |
